Reference: ChEMBL document CHEMBL1165859, “Synthesis, antiproliferative, acute toxicity and assessment of antiandrogenic activities of some newly synthesized steroidal lactams” (Eur J Med Chem, 2010)

experiment: Cytotoxicity against Balb/C mouse macrophages assessed as cell mortality at 0.01 to 5 ug/ml after 24 hrs by MTT assay; conditions: not given

Compound	mortality at 24 h [%]
C[C@]12CC[C@H](OC(=O)c3ccc(O)cc3)CC1=CC[C@@H]1[C@@H]2CC[C@]2(C)NC(=O)CC[C@@H]12	20

experiment: Cytotoxicity against Balb/C mouse macrophages assessed as cell viability after 24 hrs by MTT assay; format: cell-based; conditions: Macrophage

Compound	LC50 [µM]
C[C@]12CC[C@H](OC(=O)COc3ccccc3)CC1=CC[C@@H]1[C@@H]2CC[C@]2(C)NC(=O)CC[C@@H]12	11.7
C[C@]12CC[C@H](OC(=O)c3ccccc3)CC1=CC[C@@H]1[C@@H]2CC[C@]2(C)NC(=O)CC[C@@H]12	43.6
COc1ccc(C(=O)O[C@H]2CC[C@@]3(C)C(=CC[C@@H]4[C@@H]3CC[C@]3(C)NC(=O)CC[C@@H]43)C2)cc1	8.4
C[C@]12CC[C@H](OC(=O)c3ccc([N+](=O)[O-])cc3)CC1=CC[C@@H]1[C@@H]2CC[C@]2(C)NC(=O)CC[C@@H]12	27.8
CC(C)(C)NC(=O)[C@H]1CC[C@H]2[C@@H]3CC[C@H]4NC(=O)C=C[C@]4(C)[C@H]3CC[C@]12C [FINASTERIDE]	28.2
C[C@]12CC[C@H](OC(=O)c3ccc(O)cc3)CC1=CC[C@@H]1[C@@H]2CC[C@]2(C)NC(=O)CC[C@@H]12	75
C[C@]12CC[C@H](OC(=O)CCl)CC1=CC[C@@H]1[C@@H]2CC[C@]2(C)NC(=O)CC[C@@H]12	94.1
Cc1ccc(C(=O)O[C@H]2CC[C@@]3(C)C(=CC[C@@H]4[C@@H]3CC[C@]3(C)NC(=O)CC[C@@H]43)C2)cc1	22.8
C[C@]12CC[C@H](OC(=O)c3ccc(N)cc3)CC1=CC[C@@H]1[C@@H]2CC[C@]2(C)NC(=O)CC[C@@H]12	25.1
C[C@]12CC[C@H](OC(=O)c3ccc(Cl)cc3)CC1=CC[C@@H]1[C@@H]2CC[C@]2(C)NC(=O)CC[C@@H]12	100
